Laboratory results reported in US8022091B2, “Triazole derivative” (Taisho Pharmaceutical Co., Ltd., priority 2006, dated 2011).

Tests used:
human Edg-1 (S1P1) = molecular target: T1, human Edg-1 (S1P1) (Homo sapiens, UniProt P21453); test: S1P1 binding assay: inhibition of [33P]-S1P binding to membrane fraction of HEK-293 cells transferred with the human Edg-1 (S1P1) gene; conditions: for IC50: [33P]-S1P 0.1 nM, human Edg-1 (S1P1) HEK-293 membrane fraction, 1 h at 30° C., read-out: IC50 (concentration at which binding in the absence of the test compound was inhibited by 50%)
T1 construct: expressed in transfected cells; host or cells: HEK-293
T1 sequence (P21453 whole entry): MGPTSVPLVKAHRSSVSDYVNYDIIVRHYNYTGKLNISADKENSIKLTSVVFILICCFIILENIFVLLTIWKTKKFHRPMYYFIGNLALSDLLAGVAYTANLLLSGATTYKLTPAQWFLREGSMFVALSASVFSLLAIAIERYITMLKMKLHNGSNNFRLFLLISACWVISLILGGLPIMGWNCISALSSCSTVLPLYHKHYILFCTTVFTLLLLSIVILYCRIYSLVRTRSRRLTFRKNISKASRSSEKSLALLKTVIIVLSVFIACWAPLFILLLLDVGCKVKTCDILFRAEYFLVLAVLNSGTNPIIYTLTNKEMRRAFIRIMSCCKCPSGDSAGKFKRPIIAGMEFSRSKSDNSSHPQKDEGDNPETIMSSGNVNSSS
Method in brief: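 With 0.1 nM [33P]-S1P and compound (10^−5M single point, or a concentration range for IC50) in 0.1% DMSO, membrane fractions from human Edg-1-expressing HEK-293 cells were treated for one hour at 30° C in 20 mM Tris-HCl pH 7.4 with NaF, deoxypyridoxine and BSA. Bound label was measured after filtration, with untransfected-cell background subtracted.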

[1] = test compound at 10 μM, inhibition of [33P]-S1P binding to the membrane fraction of HEK-293 cells expressing human Edg-1 (S1P1)
[2] = test compound 10 μM, inhibition of [33P]-S1P binding, membrane fraction

Structure (SMILES) | inhibition at 10 µM (human Edg-1 (S1P1); [1]) [%] | Binding assay (membrane) % inhibition (10 μM) (human Edg-1 (S1P1); [1]) [%] | melting point [°C] | IC50 (human Edg-1 (S1P1)) [µM] | inhibition at 10 µM (human Edg-1 (S1P1); [2]) [%]
CCn1c(Oc2ccccc2)nnc1[C@@H](Cc1ccccc1)NS(=O)(=O)c1ccc(Cl)c(Cl)c1 [Compound 1] | 93.4 | 100.8 | 182 to 184 |  | 
CCn1c(Sc2ccccc2)nnc1[C@@H](Cc1ccccc1)NS(=O)(=O)c1ccc(Cl)c(Cl)c1 [Compound 2] | 103 | 97.8 | 134 to 138 |  | 
CCn1c(Oc2ccc(C)cc2)nnc1[C@@H](C)NS(=O)(=O)c1ccc(Cl)c(Cl)c1 [Compound 3] | 98.7 |  | 183.5 to 187.5 | 0.0042 | 
CCn1c(Oc2ccccc2C)nnc1[C@@H](C)NS(=O)(=O)c1ccc(Cl)c(Cl)c1 [Compound 4] | 95.7 |  | 198.5 to 200.5 |  | 
CCn1c(Oc2cccc(C)c2)nnc1[C@@H](C)NS(=O)(=O)c1ccc(Cl)c(Cl)c1 [Compound 5] | 97.3 |  | 160 to 161 | ≤ 0.035 | 
CCn1c(Oc2ccccc2Cl)nnc1[C@@H](C)NS(=O)(=O)c1ccc(Cl)c(Cl)c1 [Compound 6] | 98.2 |  | 180 to 190 |  | 
CCn1c(Oc2ccccc2)nnc1[C@@H](C)NS(=O)(=O)c1ccc(Cl)c(Cl)c1 [Compound 7] | 99.4 |  | 159.5 to 161.5 | 0.0355 | 
CCn1c(Oc2ccc(Cl)cc2)nnc1[C@@H](C)NS(=O)(=O)c1ccc(Cl)c(Cl)c1 [Compound 8] | 100 |  | 179 to 189.5 | 0.0185 | 
CCn1c(Oc2cccc(Cl)c2)nnc1[C@@H](C)NS(=O)(=O)c1ccc(Cl)c(Cl)c1 [Compound 9] | 100 |  | 145 to 148 |  | 
CCn1c(Oc2ccc(C)cc2)nnc1[C@@H](Cc1ccccc1)NS(=O)(=O)c1ccc(Cl)c(Cl)c1 [Compound 10] | 99.8 |  | 182.5 to 184.5 | 0.0175 | 
CCn1c(Oc2ccc(OC)cc2)nnc1[C@@H](C)NS(=O)(=O)c1ccc(Cl)c(Cl)c1 [Compound 11] | 98.5 |  | 155 to 160 | 0.0089 | 
CCn1c(Oc2ccc(F)cc2)nnc1[C@@H](C)NS(=O)(=O)c1ccc(Cl)c(Cl)c1 [Compound 12, 3,4-Dichloro-N-{(R)-1-[4-ethyl-5-(4-fluorophenoxy)-4H-[1,2,4]-triazol-3-yl]ethyl}benzenesulfonamide] | 99.2 |  | 190 to 192 | 0.02 | 
CCn1c(Oc2ccc(Cl)c(Cl)c2)nnc1[C@@H](C)NS(=O)(=O)c1ccc(Cl)c(Cl)c1 [Compound 13] | 102 |  | 152 to 156 | ≤ 0.035 | 
CCn1c(Oc2ccc(C)c(C)c2)nnc1[C@@H](C)NS(=O)(=O)c1ccc(Cl)c(Cl)c1 [Compound 14] | 99.5 |  | 161 to 162.5 | 0.0064 | 
CCn1c(Oc2ccc(C3CCCCC3)cc2)nnc1[C@@H](C)NS(=O)(=O)c1ccc(Cl)c(Cl)c1 [Compound 15] | 103 |  | 200 to 205 | 0.0325 | 
CCn1c(Oc2ccc(OC)c(OC)c2)nnc1[C@@H](C)NS(=O)(=O)c1ccc(Cl)c(Cl)c1 [Compound 16] | 101 |  | 125 to 127 | ≤ 0.035 | 
CCn1c(Oc2cc(OC)c(OC)c(OC)c2)nnc1[C@@H](C)NS(=O)(=O)c1ccc(Cl)c(Cl)c1 [Compound 17] | 95.4 |  | 129.5 to 131.5 |  | 
CCn1c(Oc2cc(C)c(C)c(C)c2)nnc1[C@@H](C)NS(=O)(=O)c1ccc(Cl)c(Cl)c1 [Compound 18] | 102 |  | 189 to 194 | ≤ 0.035 | 
CCn1c(Oc2cc(C)cc(C)c2)nnc1[C@@H](C)NS(=O)(=O)c1ccc(Cl)c(Cl)c1 [Compound 19] | 97.9 |  | 145 to 150 |  | 

Structure (SMILES) | inhibition at 10 µM (human Edg-1 (S1P1); [1]) [%] | Binding assay (membrane) % inhibition (10 μM) (human Edg-1 (S1P1); [1]) [%] | melting point [°C] | IC50 (human Edg-1 (S1P1)) [µM] | inhibition at 10 µM (human Edg-1 (S1P1); [2]) [%]
CCn1c(Oc2cc(OC)cc(OC)c2)nnc1[C@@H](C)NS(=O)(=O)c1ccc(Cl)c(Cl)c1 [Compound 20] | 97.4 |  | 118 to 120 |  | 
CCCCOc1ccc(Oc2nnc([C@@H](C)NS(=O)(=O)c3ccc(Cl)c(Cl)c3)n2CC)cc1 [Compound 21] | 96.7 |  | 146.5 to 149.5 | ≤ 0.035 | 
CCn1c(Oc2ccc(Oc3ccccc3)cc2)nnc1[C@@H](C)NS(=O)(=O)c1ccc(Cl)c(Cl)c1 [Compound 22] | 95.4 |  | 163 to 167.5 | 0.014 | 
CCn1c(Oc2ccc(OCc3ccccc3)cc2)nnc1[C@@H](C)NS(=O)(=O)c1ccc(Cl)c(Cl)c1 [Compound 23] | 96.7 |  | 173 to 176 | ≤ 0.035 | 
CCn1c([C@@H](C)NS(=O)(=O)c2ccc(Cl)c(Cl)c2)nnc1S(=O)(=O)c1ccc(C)cc1 [Compound 57, 3,4-Dichloro-N-[(R)-1-[4-ethyl-5(4-methylbenzenesulfonyl)-4H-[1,2,4]triazol-3-yl]-ethyl]-benzenesulfonamide] |  |  | 164 to 165 |  | 
CCC(NS(=O)(=O)c1ccc2c(Cl)cccc2c1)c1nnc(Oc2cccc(N3CCN(C)CC3)c2)n1CC (stereo not shown) [Compound 671] |  |  |  | ≤ 0.01 | 101
CCn1c(Oc2cccc(N3CCN(C)CC3)c2)nnc1[C@@H](C)NS(=O)(=O)c1ccc2c(c1)CCO2 [Compound 672] |  |  |  |  | 103
CCn1c(Oc2cccc(N3CCN(C)CC3)c2)nnc1[C@@H](C)NS(=O)(=O)c1ccc2c(c1)CCC(C)(C)O2 [Compound 673] |  |  |  |  | 62
CCn1c(Oc2cccc(N3CCN(C)CC3)c2)nnc1[C@@H](C)NS(=O)(=O)c1ccc2c(c1)OCCCO2 [Compound 674] |  |  |  |  | 97
CCn1c(Oc2cccc(N3CCN(C)CC3)c2)nnc1[C@@H](C)NS(=O)(=O)c1ccc2c(c1)OCO2 [Compound 675] |  |  |  |  | 96.6
CCn1c(Oc2cccc(N3CCN(C)CC3)c2)nnc1[C@@H](C)NS(=O)(=O)c1ccc2c(c1)C(C)(C)CCC2(C)C [Compound 676] |  |  |  |  | 92.6
CCn1c(Oc2cccc(N3CCN(C)CC3)c2)nnc1[C@@H](C)NS(=O)(=O)c1ccc2c(c1)CCN2C(C)=O [Compound 677] |  |  |  |  | 60.8
CCn1c(Oc2cccc(N3CCN(C)CC3)c2)nnc1[C@@H](C)NS(=O)(=O)c1ccc2c(c1)CCC2 [Compound 678] |  |  |  | 0.0102 | 97.4
CCn1c(Oc2cccc(N3CCN(C)CC3)c2)nnc1[C@@H](C)NS(=O)(=O)c1ccc2oc(=O)ccc2c1 [Compound 679] |  |  |  |  | 104
CCn1c(Oc2ccc(F)cc2)nnc1[C@@H](C)N(CC(=O)O)S(=O)(=O)c1ccc(Cl)c(Cl)c1 [Compound 684] |  |  | 169.5 to 171.5 |  | 
CCn1c(Oc2ccc(F)cc2)nnc1C(NS(=O)(=O)c1ccc(Cl)c(Cl)c1)C(F)(F)F (stereo not shown) [Compound 687, 3,4-Dichloro-N-[1-[4-ethyl-5-(4-fluorophenoxy)-4H-[1,2,4]triazol-3-yl]-2,2,2-trifluoroethyl]-benzenesulfonamide] |  |  |  |  | 80.1
CCn1c(Oc2ccc(F)cc2)nnc1[C@@H](CF)NS(=O)(=O)c1ccc(Cl)c(Cl)c1 [Compound 689] |  |  |  |  | 92.7
CCn1c(Oc2cccc(N3CCN(C(C)=O)CC3)c2)nnc1[C@@H](C)NS(=O)(=O)c1ccc2c(Cl)cccc2c1 [Compound 698] |  |  |  | 0.0023 | 
